Measured values taken from patent US8865750B2, “Small molecule inhibitors of RGS proteins” (The Regents of The University of Michigan, priority 2011, dated 2014).
Like-named read-outs stand apart in the source and are kept apart here.

What was measured:
[1] = Heart rate and blood pressure in freely-moving rats; format: in vivo
Description: The muscarinic agonist carbachol can induce a transient bradycardic effect by activating M2 receptors in the SAN.

RGS16 = RGS16 (Homo sapiens (Human), UniProt O15492); assay: FCPIA: Gαo binding to RGS16; details: Table 7
Method: (§1) FCPIA Dose Response and Reversibility Experiments:
FCPIA was performed as previously described using chemically biotinylated RGS proteins and AlexaFluor-532 labeled Gα0. (Roman et al., J Biomol Screen, 2009; Blazer, L. L., et al., Mol Pharmacol).
RGS/Gα binding studies: The binding of biotinylated RGS proteins to fluorescently labeled Gαo was measured by Flow Cytometry Protein Interaction Assay (FCPIA) method previously described (Roman et al., (2009) J Biomol Screen.; Blazer et al., (2010) Curr Protoc Cytom Chapter 13, Unit 13 11 11-15; Roman et al., (2007) Mol Pharmacol 71, 169-175) as were the measures of compound reversibility.

HEK293 cells = assay: Calcium mobilization induced by compound alone; format: cell-based;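 on Calcium transient (% 50014): percent of response to 10 µM reference CCG-50014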
Summary of the method: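 HEK-293 Flp-In TREx cells stably expressing muscarinic M3 receptor, with human RGS4 induced by 1 μg/mL doxycycline for 24-48 h, loaded with Fluo-4 for 30 min at 37° C. Compound added without carbachol; fluorescence followed for 120 s, quantified as area under curve or peak intensity.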

Tail suspension test = format: in vivo, mice
Description: This Example describes antidepressant activity of compounds of embodiments of the present invention. Antidepressant-like effects of CCG 203769: The tail suspension test in mice is a model of learned helplessness and is used as an assay for antidepressant medications. In this test antidepressant drugs (such as SSRIs) decrease the time the animals spend immobile by increasing escape-like behaviors.

αAR = assay: NIMH Psychoactive Drug Screening Program receptor panel
Method: (§2) Furthermore, the compound was tested against a panel of receptors via collaboration with the NIMH Psycoactive Drug Screening Program.

[2] = test system: muscarinic class of GPCRs; assay: as above
Method: as §2

RGS4/Gα0 interaction = RGS4/Gα0 interaction (Homo sapiens (Human), UniProt P49798); assay: RGS4-GFP membrane translocation (confocal microscopy, HEK-293T); format: cell-based; details: 100 μM where stated
Method: Cellular Localization Studies:
HEK-293T cells grown to 80-90% confluency in 6-well dishes in DMEM supplemented with 10% fetal bovine serum and Penicillin (100 units/ml)-Streptomycin (100 μg/ml) under 5% CO2 at 37° C. RGS and Gα0 expression was induced by transient co-transfection with either 250 ng of full-length human RGS4 with an N-terminal GFP tag (RGS4pEGFP-C1) or a C-terminal RGS4-GFP (RGS4pDEST47) and 250 ng of pcDNA3.1 or pcDNA with wildtype human Gα0. Cells were split onto poly-D-lysine coated glass coverslips and cultured for 24-48 hours after transfection before live cell imaging. Images were acquired on an Olympus Fluoview 500 confocal microscope with a 60×1.40 numerical aperture (N.A) oil objective. Images were obtained by taking a series of stacks every 0.5 μm through the cell and combining the images into a composite stack. The light source for the fluorescent studies was a 488 nm laser with a 505-525 nm bandpass filter. Images were quantified using NIH ImageJ software version 1.43r.
Confocal Microscopy: HEK-293T cells grown to 80-90% confluency in 6-well dishes in DMEM supplemented with 10% fetal bovine serum and Penicillin (100 units/ml)-Streptomycin (100 μg/ml) under 5% CO2 at 37° C. […] Images were quantified using NIH ImageJ software version 1.43r.

RGS8 = RGS8 (Homo sapiens (Human), UniProt P57771); assay: FCPIA: Gαo binding to RGS8
Description: as §1

Sequence of RGS8 (P57771 other isoform, or with tags, fused parts or gaps): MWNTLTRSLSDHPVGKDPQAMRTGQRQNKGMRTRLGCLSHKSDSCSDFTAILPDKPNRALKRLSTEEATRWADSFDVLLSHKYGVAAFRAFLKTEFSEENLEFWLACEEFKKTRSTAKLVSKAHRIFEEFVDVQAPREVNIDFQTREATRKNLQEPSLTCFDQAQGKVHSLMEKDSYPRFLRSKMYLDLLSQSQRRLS
Sequence of RGS4/Gα0 interaction (P49798 whole entry): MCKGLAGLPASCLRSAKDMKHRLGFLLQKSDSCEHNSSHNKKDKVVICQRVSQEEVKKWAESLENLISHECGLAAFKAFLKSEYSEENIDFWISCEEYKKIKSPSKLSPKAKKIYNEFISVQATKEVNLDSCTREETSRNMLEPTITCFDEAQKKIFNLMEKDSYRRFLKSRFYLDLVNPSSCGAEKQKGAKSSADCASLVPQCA
Sequence of RGS16 (O15492 whole entry, species assumed): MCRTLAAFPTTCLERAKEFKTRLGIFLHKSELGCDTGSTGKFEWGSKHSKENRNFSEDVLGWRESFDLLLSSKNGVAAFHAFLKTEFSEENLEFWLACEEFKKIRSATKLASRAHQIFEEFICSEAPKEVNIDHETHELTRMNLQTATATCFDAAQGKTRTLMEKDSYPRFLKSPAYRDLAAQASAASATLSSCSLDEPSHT

CCCCn1c(=O)sn(CC)c1=O [CCG-203769, 2-ethyl-4-butyl-1,2,4-thiadiazolidine-3,5-dione]
blood pressure, carbachol plus compound ([1]; 10 mg/kg IV + carbachol 0.1 mg/kg IP): does not reach statistical significance | bradycardic effect of carbachol after compound ([1]; 10 mg/kg IV before carbachol 0.1 mg/kg IP): significantly potentiated | effect upon blood pressure, compound alone ([1]; 10 mg/kg, IV): no significant effect | effect upon heart rate, compound alone ([1]; 10 mg/kg, IV): no significant effect | IC50 (RGS16): 6 µM | induction of calcium transient by compound alone (HEK293 cells; 10 μM, HEK293 cells): no ability to induce calcium mobilization | Emax at 10 µM (HEK293 cells; Homo sapiens, HEK293, read-out: Calcium transient (% 50014)): 2.7% | effect on immobility in RGS4 knockout mice (Tail suspension test; 10 mg/kg): lost | immobility time (Tail suspension test; IP, significant effect at 10 mg/kg): decreases their immobility time in a dose-dependent manner | effect on αAR (αAR): able to inhibit | effect upon muscarinic class of GPCRs [2]: little to no observable effect | reversal of Gα0-induced RGS4 membrane translocation (RGS4/Gα0 interaction): reverses the membrane translocation | RGS8 Hill Slope (RGS8; Table 3): −0.56 | IC50 (RGS8; Table 6, FCPIA, read-out: RGS8 IC50): 83.5 µM | IC50 (RGS8; Table 7, read-out: IC50 (μM), RGS8): 79 µM
